Results: US6923921B2, “Fluorinated polyether compositions” (3M Innovative Properties Company, priority 2002, dated 2005)

Assay: Toxicokinetic study with HFPO alcohols: oral absorption and serum elimination (total fluorine in serum)
Parameters: species or system Male Sprague-Dawley rats
Conditions: rat, in vivo, 30 mg/kg
Procedure: The objective of this study was to assess the oral absorption and serum elimination half-life of six hexafluoropropylene oxide (HFPO)-alcohol oligomers (CF3CF2CF2O(CF(CF3)CF2O)xCF(CF3)C(O)N(H)CH2CH2OH), or mixtures thereof, in rats. Male Sprague-Dawley rats (N=4 to 6 rats per dose group) received a single 30 mg/kg dose of the various HFPO alcohol oligomers in propylene glycol by oral gavage at a volume of 5 ml/kg. Necropsies were performed on day one and day four post dose.
Serum samples obtained at necropsy were analyzed for total fluorine based on published methods (1) using an Antek 9000F Fluoride Analysis System. The method was based on oxy-pyrohydrolysis at 1050° C., whereby the C—F bond is broken and the resulting product, hydrogen fluoride (HF), is trapped in a buffer solution and measured with the fluoride ion electrode. The total fluorine levels obtained by this method reflect the total organic fluorine in the serum samples and are reported in Table 2.

Row | Substance | Amount of Total F ppm (SD) in serum, Day 1 Post-Dose | Amount of Total F ppm (SD) in serum, Day 4 Post-Dose | apparent half-life serum fluorine levels
1 | CF3CF2CF2O(CF(CF3)CF2O)xCF(CF3)C(O)N(H)CH2CH2OH [Example 2] | 0.15 (0.00) ppm | 0.15 (0.00) ppm | –
2 | CF3CF2CF2O(CF(CF3)CF2O)xCF(CF3)C(O)N(H)CH2CH2OH [Example 3] | 0.15 (0.00) ppm | 0.15 (0.00) ppm | –
3 | CF3CF2CF2O(CF(CF3)CF2O)xCF(CF3)C(O)N(H)CH2CH2OH [Example C1] | 7.55 (1.34) ppm | 3.90 (0.00) ppm | approximately four
